Assay results taken from the NIST ThermoML archive (doi:10.1021/je060271a).
Several values for one entry are separate records, joined by “and”; a condition that tells them apart may be missing. Equal entries are not always repeated.

Conditions: Liquid, Vibrating tube method

CCCCCC(=O)OCC(COC(=O)CCCCC)(COC(=O)CCCCC)COC(=O)CCCCC [pentaerythritol tetrahexanoate]
Conditions | mass density
343.15 K, 29943 kPa | 978.1 kg/m3
343.15 K, 29977 kPa | 978.2 kg/m3
343.15 K, 30005 kPa | 978.1 kg/m3
343.15 K, 30034 kPa | 978.2 kg/m3
343.15 K, 30068 kPa | 978.2 kg/m3
343.15 K, 34037 kPa | 980.7 kg/m3 and 980.8 kg/m3
343.15 K, 34038 kPa | 980.6 kg/m3
343.15 K, 34070 kPa | 980.7 kg/m3
343.15 K, 34080 kPa | 980.7 kg/m3
343.15 K, 34257 kPa | 980.8 kg/m3
343.15 K, 34258 kPa | 980.9 kg/m3
343.15 K, 34259 kPa | 981 kg/m3 and 980.9 kg/m3
343.15 K, 34260 kPa | 980.7 kg/m3 and 980.8 kg/m3
343.15 K, 34261 kPa | 980.8 kg/m3
343.15 K, 34262 kPa | 980.8 kg/m3 and 980.9 kg/m3
343.15 K, 34263 kPa | 980.7 kg/m3
343.15 K, 34264 kPa | 980.9 kg/m3 and 980.8 kg/m3
343.15 K, 34271 kPa | 980.8 kg/m3
343.15 K, 34272 kPa | 980.9 kg/m3
343.15 K, 34279 kPa | 980.9 kg/m3 and 981 kg/m3
343.15 K, 34280 kPa | 980.8 kg/m3 and 980.9 kg/m3
343.15 K, 34281 kPa | 980.9 kg/m3
343.15 K, 34282 kPa | 980.8 kg/m3 and 980.9 kg/m3
343.16 K, 205.2 kPa | 957.2 kg/m3
343.16 K, 205.3 kPa | 957.3 kg/m3
343.16 K, 205.5 kPa | 957.1 kg/m3 and 957.3 kg/m3
343.16 K, 205.7 kPa | 957.3 kg/m3
343.16 K, 205.9 kPa | 957.3 kg/m3 and 957.2 kg/m3
343.16 K, 206 kPa | 957.2 kg/m3 and 957.3 kg/m3
343.16 K, 206.2 kPa | 957.2 kg/m3 and 957.3 kg/m3
343.16 K, 206.4 kPa | 957.3 kg/m3 and 957.2 kg/m3
343.16 K, 206.6 kPa | 957.2 kg/m3
343.16 K, 206.7 kPa | 957.2 kg/m3
343.16 K, 207.1 kPa | 957.3 kg/m3
343.16 K, 207.4 kPa | 957.3 kg/m3 and 957.1 kg/m3
343.16 K, 207.6 kPa | 957.2 kg/m3 and 957.1 kg/m3
343.16 K, 207.8 kPa | 957.3 kg/m3
343.16 K, 207.9 kPa | 957.3 kg/m3 and 957.2 kg/m3
343.16 K, 208 kPa | 957.1 kg/m3 and 957.3 kg/m3
343.16 K, 208.1 kPa | 957.2 kg/m3 and 957.3 kg/m3
343.16 K, 208.5 kPa | 957.4 kg/m3 and 957.2 kg/m3 and 957.3 kg/m3
343.16 K, 208.6 kPa | 957.2 kg/m3 and 957.1 kg/m3
343.16 K, 208.7 kPa | 957.2 kg/m3
343.16 K, 209.9 kPa | 957.1 kg/m3
343.16 K, 210 kPa | 957.4 kg/m3 and 957.2 kg/m3
343.16 K, 210.2 kPa | 957.4 kg/m3
343.16 K, 210.4 kPa | 957.2 kg/m3
343.16 K, 210.6 kPa | 957.2 kg/m3
343.16 K, 210.9 kPa | 957.2 kg/m3
343.16 K, 211.1 kPa | 957.3 kg/m3 and 957.2 kg/m3
343.16 K, 211.3 kPa | 957.2 kg/m3 and 957.3 kg/m3
343.16 K, 211.4 kPa | 957.3 kg/m3
343.16 K, 211.6 kPa | 957.2 kg/m3
343.16 K, 211.8 kPa | 957.2 kg/m3
343.16 K, 211.9 kPa | 957.4 kg/m3 and 957.2 kg/m3 and 957.5 kg/m3
343.16 K, 212.1 kPa | 957 kg/m3
343.16 K, 212.3 kPa | 957.3 kg/m3
343.16 K, 212.6 kPa | 957.3 kg/m3
343.16 K, 214.2 kPa | 957.2 kg/m3 and 957.4 kg/m3
343.16 K, 214.4 kPa | 957.2 kg/m3
343.16 K, 214.5 kPa | 957.3 kg/m3
343.16 K, 214.6 kPa | 957.2 kg/m3
343.16 K, 214.7 kPa | 957.2 kg/m3
343.16 K, 214.9 kPa | 957.3 kg/m3 and 957.2 kg/m3
343.16 K, 215.1 kPa | 957.2 kg/m3
343.16 K, 215.8 kPa | 957.2 kg/m3
343.16 K, 216.1 kPa | 957.3 kg/m3 and 957.1 kg/m3
343.16 K, 216.3 kPa | 957.3 kg/m3 and 957.4 kg/m3
343.16 K, 216.8 kPa | 957.4 kg/m3
343.16 K, 217 kPa | 957.3 kg/m3 and 957.2 kg/m3
343.16 K, 217.5 kPa | 957.4 kg/m3 and 957.3 kg/m3
343.16 K, 217.7 kPa | 957.1 kg/m3 and 957.5 kg/m3 and 957.2 kg/m3
343.16 K, 217.9 kPa | 957.3 kg/m3 and 957.2 kg/m3
343.16 K, 218 kPa | 957.2 kg/m3 and 957.3 kg/m3
343.16 K, 218.2 kPa | 957.3 kg/m3 and 957.2 kg/m3
343.16 K, 218.6 kPa | 957.3 kg/m3 and 957.2 kg/m3
343.16 K, 218.7 kPa | 957.4 kg/m3
343.16 K, 219.6 kPa | 957.3 kg/m3
343.16 K, 219.8 kPa | 957.3 kg/m3
343.16 K, 221 kPa | 957.2 kg/m3
343.16 K, 221.2 kPa | 957.2 kg/m3 and 957.3 kg/m3
343.16 K, 221.3 kPa | 957.3 kg/m3
343.16 K, 221.5 kPa | 957.2 kg/m3
343.16 K, 221.7 kPa | 957.1 kg/m3 and 957.3 kg/m3
343.16 K, 221.9 kPa | 957.2 kg/m3
343.16 K, 222.1 kPa | 957.3 kg/m3
343.16 K, 222.2 kPa | 957.3 kg/m3 and 957.2 kg/m3
343.16 K, 222.4 kPa | 957.3 kg/m3
343.16 K, 222.6 kPa | 957.3 kg/m3 and 957.2 kg/m3
343.16 K, 224.6 kPa | 957.2 kg/m3
343.16 K, 224.8 kPa | 957.1 kg/m3
343.16 K, 225.2 kPa | 957.3 kg/m3
343.16 K, 225.5 kPa | 957.3 kg/m3 and 957.2 kg/m3
343.16 K, 225.7 kPa | 957.2 kg/m3
343.16 K, 226 kPa | 957.2 kg/m3
343.16 K, 226.2 kPa | 957.2 kg/m3
343.16 K, 226.4 kPa | 957.1 kg/m3
343.16 K, 226.6 kPa | 957.3 kg/m3
343.16 K, 226.7 kPa | 957.2 kg/m3
343.16 K, 227.3 kPa | 957.3 kg/m3
343.16 K, 227.4 kPa | 957.3 kg/m3
343.16 K, 227.6 kPa | 957.3 kg/m3
343.16 K, 227.8 kPa | 957.3 kg/m3
343.16 K, 227.9 kPa | 957.2 kg/m3
343.16 K, 228 kPa | 957.3 kg/m3 and 957.2 kg/m3
343.16 K, 228.1 kPa | 957.4 kg/m3
343.16 K, 228.3 kPa | 957.1 kg/m3 and 957.2 kg/m3
343.16 K, 228.8 kPa | 957.2 kg/m3 and 957.3 kg/m3
343.16 K, 229 kPa | 957.3 kg/m3
343.16 K, 229.2 kPa | 957.3 kg/m3 and 957.2 kg/m3
343.16 K, 229.3 kPa | 957.2 kg/m3
343.16 K, 229.7 kPa | 957.1 kg/m3 and 957.3 kg/m3
343.16 K, 229.9 kPa | 957.3 kg/m3
343.16 K, 230.1 kPa | 957.4 kg/m3
343.16 K, 230.4 kPa | 957.3 kg/m3
343.16 K, 230.6 kPa | 957.2 kg/m3
343.16 K, 230.7 kPa | 957.2 kg/m3
343.16 K, 230.9 kPa | 957.3 kg/m3
343.16 K, 231.4 kPa | 957.1 kg/m3
343.16 K, 239.3 kPa | 957.2 kg/m3
343.16 K, 239.4 kPa | 957.2 kg/m3
343.16 K, 239.6 kPa | 957.3 kg/m3
343.16 K, 239.8 kPa | 957.2 kg/m3
343.16 K, 239.9 kPa | 957.3 kg/m3
343.16 K, 241.9 kPa | 957.3 kg/m3
343.16 K, 246.2 kPa | 957.2 kg/m3
343.16 K, 246.5 kPa | 957.2 kg/m3
343.16 K, 246.9 kPa | 957.2 kg/m3
343.16 K, 247.1 kPa | 957.2 kg/m3
343.16 K, 247.2 kPa | 957.3 kg/m3
343.16 K, 247.4 kPa | 957.3 kg/m3
343.16 K, 247.6 kPa | 957.2 kg/m3 and 957.3 kg/m3
343.16 K, 247.8 kPa | 957.2 kg/m3 and 957.3 kg/m3
343.16 K, 247.9 kPa | 957.4 kg/m3 and 957.3 kg/m3
343.16 K, 248.1 kPa | 957.4 kg/m3
343.16 K, 248.3 kPa | 957.3 kg/m3
343.16 K, 248.6 kPa | 957.3 kg/m3
343.16 K, 248.8 kPa | 957.3 kg/m3 and 957.2 kg/m3
343.16 K, 249 kPa | 957.2 kg/m3
343.16 K, 249.2 kPa | 957.2 kg/m3
343.16 K, 249.8 kPa | 957.2 kg/m3
343.16 K, 250.4 kPa | 957.2 kg/m3
343.16 K, 250.6 kPa | 957.3 kg/m3
343.16 K, 250.7 kPa | 957.1 kg/m3
343.16 K, 250.9 kPa | 957.3 kg/m3 and 957.2 kg/m3
